Source: BindingDB's records for doi:10.1016/j.bmcl.2019.126932 (Japan Tobacco, 2020)

How the values were obtained:
[1] = Inhibition of NS5A in Hepatitis C virus subtype 1a replicon infected in human HuH7 cells assessed as reduction in viral replication
[2] = Inhibition of NS5A in Hepatitis C virus subtype 1b replicon infected in human HuH7 cells assessed as reduction in viral replication
[3] = Inhibition of NS5A in Hepatitis C virus subtype 2a replicon infected in human HuH7 cells assessed as reduction in viral replication

SMILES	EC50 [1]	EC50 [2]	EC50 [3]
COC1CCC(C(=O)Nc2ccc(-c3ccc(-c4c[nH]c([C@@H]5CCCN5C(=O)[C@H](NC(=O)CCCNC(=O)OCc5ccccc5)c5ccccc5)n4)cc3)cc2)CC1 (stereo partly drawn)	8.1 nM	0.0049 nM	–
CCCC(=O)Nc1ccc(-c2ccc(-c3c[nH]c([C@@H]4CCCN4C(=O)[C@H](NC(=O)c4cccc(NC(=O)OCc5ccccc5)c4)c4ccccc4)n3)cc2)cc1	44 nM	0.076 nM	–
CCCC(=O)Nc1ccc(-c2ccc(-c3c[nH]c([C@@H]4CCCN4C(=O)[C@H](NC(=O)CCCCCCc4ccccc4)c4ccccc4)n3)cc2)cc1	642 nM	–	–
COCc1ccc(C(=O)Nc2ccc(-c3ccc(-c4c[nH]c([C@@H]5CCCN5C(=O)[C@H](NC(=O)CCCNC(=O)OCc5ccccc5)c5ccccc5)n4)cc3)cc2)cc1	3.5 nM	0.0042 nM	–
COC(=O)N[C@@H](C(=O)N1CCC[C@H]1c1ncc[nH]1)c1ccccc1	> 10000 nM	> 10000 nM	–
CCCC(=O)Nc1ccc(-c2ccc(-c3c[nH]c([C@@H]4CCCN4C(=O)[C@H](NC(=O)N4CCC[C@@H](NC(=O)OCc5ccccc5)C4)c4ccccc4)n3)cc2)cc1	100 nM	0.023 nM	–
CCCC(=O)Nc1ccc(-c2ccc(-c3c[nH]c([C@@H]4CCCN4C(=O)[C@H](NC(=O)CCCNC(=O)OCc4ccccc4)c4ccccc4)n3)cc2)cc1	56 nM	0.15 nM	–
CCCC(=O)Nc1ccc(-c2ccc(-c3c[nH]c([C@@H]4CCCN4C(=O)[C@H](NC(=O)OC)c4ccccc4)n3)cc2)cc1	2800 nM	0.34 nM	–
CCCC(=O)Nc1ccc(-c2ccc(-c3c[nH]c([C@@H]4CCCN4C(=O)[C@H](NC(=O)N4CCCC4)c4ccccc4)n3)cc2)cc1	353 nM	–	–
CCCC(=O)Nc1ccc(-c2ccc(-c3c[nH]c([C@@H]4CCCN4C(=O)[C@H](NC(=O)N4CC[C@@H](NC(=O)OCc5ccccc5)C4)c4ccccc4)n3)cc2)cc1	1.1 nM	0.0048 nM	–
CCCC(=O)Nc1ccc(-c2ccc(-c3c[nH]c([C@@H]4CCCN4C(=O)[C@H](NC(=O)c4ccccc4)c4ccccc4)n3)cc2)cc1	2400 nM	–	–
COC(=O)N[C@@H](C(=O)N1CCC[C@H]1c1nc(-c2ccc(-c3ccccc3)cc2)c[nH]1)c1ccccc1	2800 nM	57 nM	–
CCCC(=O)Nc1ccc(-c2ccc(-c3c[nH]c([C@@H]4CCCN4C(=O)[C@H](NC(=O)N4CC[C@@H](NC(=O)OC)C4)c4ccccc4)n3)cc2)cc1	353 nM	0.043 nM	–
CCCC(=O)Nc1ccc(-c2ccc(-c3c[nH]c([C@@H]4CCCN4C(=O)[C@H](NC(=O)c4ccc(NC(=O)OCc5ccccc5)cc4)c4ccccc4)n3)cc2)cc1	131 nM	–	–
COC1CCN(C(=O)Nc2ccc(-c3ccc(-c4c[nH]c([C@@H]5CCCN5C(=O)[C@H](NC(=O)CCCNC(=O)OCc5ccccc5)c5ccccc5)n4)cc3)cc2)CC1	2.3 nM	0.02 nM	–
COC1CCN(C(=O)Nc2ccc(-c3ccc(-c4c[nH]c([C@@H]5CCCN5C(=O)[C@H](NC(=O)N5CC[C@@H](NC(=O)OCc6ccccc6)C5)c5ccccc5)n4)cc3)cc2)CC1	0.039 nM	0.028 nM	0.018 nM
CCCC(=O)Nc1ccc(-c2ccc(-c3c[nH]c([C@@H]4CCCN4C(=O)[C@H](NC(=O)c4ccccc4NC(=O)OCc4ccccc4)c4ccccc4)n3)cc2)cc1	614 nM	–	–
CCCC(=O)Nc1ccc(-c2ccc(-c3c[nH]c([C@@H]4CCCN4C(=O)[C@H](NC(=O)CCCc4ccccc4)c4ccccc4)n3)cc2)cc1	1300 nM	–	–
COC(=O)N[C@@H](C(=O)N1CCC[C@H]1c1ncc(-c2ccc(-c3ccc(-c4cnc([C@@H]5CCCN5C(=O)[C@H](NC(=O)OC)c5ccccc5)[nH]4)cc3)cc2)[nH]1)c1ccccc1	0.098 nM	0.014 nM	–
O=C(CCCNC(=O)OCc1ccccc1)N[C@@H](C(=O)N1CCC[C@H]1c1nc(-c2ccc(-c3ccc(NC(=O)c4ccccc4)cc3)cc2)c[nH]1)c1ccccc1	34 nM	0.025 nM	–
CCCC(=O)Nc1ccc(-c2ccc(-c3c[nH]c([C@@H]4CCCN4C(=O)[C@H](NC(=O)N4CCC[C@H](NC(=O)OCc5ccccc5)C4)c4ccccc4)n3)cc2)cc1	247 nM	–	–
CCCC(=O)Nc1ccc(-c2ccc(-c3c[nH]c([C@@H]4CCCN4C(=O)[C@H](NC(=O)N4CC[C@H](NC(=O)OCc5ccccc5)C4)c4ccccc4)n3)cc2)cc1	82 nM	0.037 nM	–
